One data set concerns Hep3B cells. As to the kind of experiment: Hep3B cell proliferation inhibition test (CellTiter-Glo). It counts as cell-based. Particulars: Homo sapiens, 72 h, CTG. On the procedure:
Hep3B Cell Proliferation Inhibition Test
The influence of the compound according to the present invention on Hep3B cell proliferation was evaluated by a luminescence cell viability test.
(§1) The experimental method is summarized as follows:
A CellTilter-Glo (CTG) assay kit was used to detect an indicator ATP of active cellular metabolism by means of a unique stable luciferase, and the luminous signal produced in the test was in direct proportion to the count of active cells in the medium, thereby to detect the cell proliferation of Hep3B.
A CellTilter-Glo agent (Promega, G7572) was comprised of a CellTilter-Glo lyophilized powder and a CellTilter-Glo buffer, and the lyophilized powder was dissolved into the buffer in use.
Hep3B cells (ATCC, HB-8064) (cell source: Shanghai Academy of Life Sciences, Chinese Academy of Sciences) were cultured in a DMEM complete medium (Thermofisher, 11995073) containing a 10% FBS (GBICO, 10099-141) and 100 units/ml mycillin mixed solution (Thermofisher, 15140122). When the cells coverage reached 80-90% in the culture vessel, after the cells were digested and blown about with 0.25% pancreatin (containing EDTA) (Thermofisher, 25200056), they were planted in a white 384 well plate (Thermofisher, 164610), with 1000 cells in each well (27 μl of a DMEM complete medium), and then the 384 well plate was placed into an incubator at 37° C. and 5% CO2 and cultured overnight (18-20 h). The compound was dissolved and diluted in 100% DMSO to 100 μM, then 4-fold-series diluted with DMSO to a minimum concentration of 0.0061 μM, and each concentration point was 50-fold diluted with the FBS-free DMEM medium. If the IC50 value of the compound was very low, the initial concentration of the compound could be reduced. […] This 384 well plate was placed into an incubator at 37° C. and 5% CO2 for further culture, taken out after 72 h, and stood at room temperature for 30 min. The CTG agent was also taken out and balanced to room temperature. 15 μl of the CTG agent was added into each well, and placed onto a shaker to be gently shaken for 3 min to ensure sufficient cell lysis. After 10 min of standing to allow the luminescence signal to be stable, the luminescence signal was read with EnVision (Perkin Elmer).
The inhibition percentage of the compound against Hep3B cell proliferation could be calculated with the following formula: Inhibition percentage=100−100*(signalcompound−signalnegative control)/(signalpositive control−signalnegative control)
The IC50 value of the compound was calculated by the following formula, from 8 concentration points, with XLfit (ID Business Solutions Ltd., UK): Y=Bottom+(Top−Bottom)/(1+10^((Log IC50−X)*slope factor))
(§2) Where, Y is the inhibition percentage, Bottom is the bottom plateau of the curve (the bottom plateau of the S-type curve), Top is the top plateau of the curve (the top plateau of the S-type curve), and X is the log value of the compound concentration to be measured.
(Cellular ATP, detected with luciferase, serves as a proxy for viable cell number.)

The subject of data set [1] is FGF19/FGFR4-overexpressed Hep3B hepatocellular carcinoma (HCC) xenograft tumors. In kind it is in vivo. Particulars: for TGI value / mean tumor size: oral, day 18. The protocol: Data points represent group mean, error bars represent standard error of the mean (SEM). *P<0.05, **P<0.01, ***P<0.001, ****P<0.0001, NS P>0.05 vs vehicle group.
The relative change of body weights (% RCBW) was calculated based on the following formula: RCBW (%)=(BWi−BW0)/BW0×100%, BWi was the bodyweight on the day of dosing and BW0 was the bodyweight on the first day of administration. Data points represent percent group mean change in BW. Error bars represent standard error of the mean (SEM).
Dosing was initiated on day 0 and effects on tumor growth were evaluated by measuring percent tumor growth inhibition (TGI) at the end of the study. Tolerability was assessed by body weight loss, lethality, and clinical signs of adverse treatment-related side effects. Tumor volumes and body weights were measured twice per week in the administration period. The percentage of TGI was determined on day 18 of the study. The difference between the mean values of tumor volume in treatment and vehicle groups was analyzed for significance using one-way ANOVA (followed by Dennett's test) at each time point and a P<0.05 was considered to be statistically significant.

In data set [2] the target is human recombinant FGFR4 catalytic structural domain protein (Homo sapiens (Human), UniProt P22455). The data set is described as follows: FGFR4 activity inhibition test (HTRF kinase assay). It counts as biochemical. Particulars: 90 μM ATP. On the procedure: FGFR4 Activity Inhibition Test
human recombinant FGFR4 catalytic structural domain protein, sequence (P22455 460-802): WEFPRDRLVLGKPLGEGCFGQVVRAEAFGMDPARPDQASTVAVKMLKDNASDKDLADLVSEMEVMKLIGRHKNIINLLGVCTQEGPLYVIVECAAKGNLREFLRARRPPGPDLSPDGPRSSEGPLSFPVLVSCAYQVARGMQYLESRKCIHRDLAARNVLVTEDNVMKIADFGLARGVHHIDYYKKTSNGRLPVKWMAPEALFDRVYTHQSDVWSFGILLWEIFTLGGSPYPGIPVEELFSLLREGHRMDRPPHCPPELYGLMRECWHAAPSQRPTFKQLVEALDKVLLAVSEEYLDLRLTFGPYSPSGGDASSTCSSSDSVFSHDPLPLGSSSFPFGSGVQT
The influence of the compound according to the present invention on the activity of fibroblast growth factor receptor 4 (FGFR4) was evaluated by an in vitro kinase assay experiment.
as §1
The in vitro activity of FGFR4 was determined by assaying the phosphorylation level of the substrate in the kinase reaction, by means of an HTRF kinase assay kit.
(§3) If the IC50 value of the compound was very low, the initial concentration of the compound could be reduced.
After 60 min, the enzyme reaction was terminated by EDTA in the assay solution, and the phosphorylated products were identified by both the Eu^3+ labeled cage-shaped antibody (donor) and the streptavidin labeled XL665 antibody (receptor) at the same time. […] The inhibition percentage of the compound against FGFR4 activity could be calculated with the following formula: Inhibition percentage=100−100*(signalcompound−signalnegative control)/(signalpositive control−signalnegative control)
The IC50 value of the compound was calculated by the following formula, from 10 concentration points, with XLfit (ID Business Solutions Ltd., UK): Y=Bottom+(Top−Bottom)/(1+10^((Log IC50−X)*slope factor)) Where, Y is the inhibition percentage, Bottom is the bottom plateau of the curve (the bottom plateau of the S-type curve), Top is the top plateau of the curve (the top plateau of the S-type curve), and X is the log value of the compound concentration to be measured.
In general terms: Time-resolved FRET reads energy transfer from a long-lived donor to a nearby acceptor.

The target in data set [3] is human recombinant FGFR1 catalytic structural domain protein (Homo sapiens (Human), UniProt P11362). As to the kind of experiment: FGFR1 activity inhibition test (HTRF kinase assay). It counts as biochemical. To be noted: 40 μM ATP. On the procedure:
FGFR1 Activity Inhibition Test
The influence of the compound according to the present invention on the activity of fibroblast growth factor receptor 1 (FGFR1) was evaluated by an in vitro kinase assay experiment.
as §1
The in vitro activity of FGFR1 was determined by assaying the phosphorylation level of the substrate in the kinase reaction, by means of an HTRF kinase assay kit.
as §3
After 60 min, the enzyme reaction was terminated by EDTA in the assay solution, and the phosphorylated products were identified by both the Eu^3+ labeled cage-shaped antibody (donor) and the streptavidin labeled XL665 antibody (receptor) at the same time. […] The inhibition percentage of the compound against FGFR1 activity could be calculated with the following formula: Inhibition percentage=100−100*(signalcompound−signalnegative control)/(signalpositive control−signalnegative control)
(§4) The IC50 value of the compound was calculated by the following formula, from 10 concentration points, with XLfit (ID Business Solutions Ltd., UK): Y=Bottom+(Top−Bottom)/(1+10^((Log IC50−X)*slope factor))
as §2

Data set [4] addresses human recombinant FGFR2 catalytic structural domain protein (Homo sapiens (Human), UniProt P21802). The data set is described as follows: FGFR2 activity inhibition test (HTRF kinase assay). In kind it is biochemical. Particulars: 50 μM ATP. On the procedure:
FGFR2 Activity Inhibition Test
The influence of the compound according to the present invention on the activity of fibroblast growth factor receptor 2 (FGFR2) was evaluated by an in vitro kinase assay experiment.
as §1
The in vitro activity of FGFR2 was determined by assaying the phosphorylation level of the substrate in the kinase reaction, by means of an HTRF kinase assay kit. The reaction buffer comprised the following components: 5-fold diluted Enzymatic buffer/kinase 5× (Cisbio, Catalog number 62EZBFDD) (main ingredient: 50 mM HEPES, pH 7.0), 5 mM MgCl2, 1 mM DTT; the human recombinant FGFR2 catalytic structural domain protein (amino acids 400-821) was commercially available from Beijing Sino Biological Inc., diluted with the reaction buffer to a 0.045 ng/μL kinase solution; the substrate reaction solution comprised a biotin labeled tyrosine kinase substrate diluted with the reaction buffer to 800 nM (Cisbio, catalog number 62TK0PEC), and 50 μM ATP, and the assay solution comprised an Eu^3+ labeled cage-shaped antibody (Cisbio, Catalog number 61T66KLB) diluted with the assay buffer (Cisbio, Catalog number 62SDBRDF) to 0.125 ng/μL, and 50 nM streptavidin labeled XL665 (Cisbio, Catalog number 610SAXLB).
The compound was dissolved and diluted in 100% DMSO to 100 μM, then 4-fold-series diluted with DMSO to a minimum concentration of 0.0061 μM, and each concentration point was then 40-fold diluted with the reaction buffer. If the IC50 value of the compound was very low, the initial concentration of the compound could be reduced.
4 μL of a compound solution and 2 μL of an FGFR2 kinase solution were added into a 384 well assay plate (Thermo, Catalog number 264706), mixed uniformly and then incubated for 15 min at room temperature; subsequently, 4 μL of the substrate reaction solution was added therein, and the reaction mixture was incubated for 60 min at room temperature; and then 10 μL of an assay solution of an equal volume to the reaction was added therein and mixed uniformly, followed by placement at room temperature. After 60 min, the enzyme reaction was terminated by EDTA in the assay solution, and the phosphorylated products were identified by both the Eu^3+ labeled cage-shaped antibody (donor) and the streptavidin labeled XL665 antibody (receptor) at the same time. After the excitation with laser, the donors and receptors that were close to each other experienced energy resonance transfer, and the energy transferred from the donor (620 nm) to the receptor (665 nm) could be detected with Envision. The ratio of 665/620 is in positive correlation to the phosphorylation degree of the substrate, thereby to detect the FGFR2 kinase activity. […] The inhibition percentage of the compound against FGFR2 activity could be calculated with the following formula: Inhibition percentage=100−100*(signalcompound−signalnegative control)/(signalpositive control−signalnegative control)
as §4, §2

Molecules are shown by their SMILES. pIC50: −log10 of the molar value. Read-outs that look alike come from different tables or passages of the source.

human recombinant FGFR1 catalytic structural domain protein, sequence (P11362 other isoform, or with tags, fused parts or gaps): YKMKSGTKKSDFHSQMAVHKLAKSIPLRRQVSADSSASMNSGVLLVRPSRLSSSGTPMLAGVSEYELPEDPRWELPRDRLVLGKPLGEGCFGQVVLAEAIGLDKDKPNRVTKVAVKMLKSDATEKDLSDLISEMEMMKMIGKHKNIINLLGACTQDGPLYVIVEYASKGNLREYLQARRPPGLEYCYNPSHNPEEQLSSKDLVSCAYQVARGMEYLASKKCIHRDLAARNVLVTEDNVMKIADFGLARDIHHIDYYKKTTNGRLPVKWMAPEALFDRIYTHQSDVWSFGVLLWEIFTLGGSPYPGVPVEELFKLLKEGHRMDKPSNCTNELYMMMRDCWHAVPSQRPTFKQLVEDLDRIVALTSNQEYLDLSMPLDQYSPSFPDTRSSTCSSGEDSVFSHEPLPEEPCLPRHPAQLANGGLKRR
human recombinant FGFR2 catalytic structural domain protein, sequence (P21802 400-821): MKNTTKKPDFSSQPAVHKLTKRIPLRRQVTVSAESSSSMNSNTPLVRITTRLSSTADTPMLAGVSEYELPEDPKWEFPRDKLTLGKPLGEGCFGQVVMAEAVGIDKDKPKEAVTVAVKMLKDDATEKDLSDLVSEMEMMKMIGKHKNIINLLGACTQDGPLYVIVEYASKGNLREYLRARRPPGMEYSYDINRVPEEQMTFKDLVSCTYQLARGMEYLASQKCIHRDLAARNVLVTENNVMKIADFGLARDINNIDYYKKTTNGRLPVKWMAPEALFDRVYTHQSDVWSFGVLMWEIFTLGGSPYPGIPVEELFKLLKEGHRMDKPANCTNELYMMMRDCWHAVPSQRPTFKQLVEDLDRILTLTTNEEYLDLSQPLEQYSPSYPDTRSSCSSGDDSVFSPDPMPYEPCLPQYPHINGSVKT

As for `COC[C@@H](C)Oc1cc(NC(=O)N(C)c2ccc(CN3CCN(C)CC3=O)c(C=O)n2)ncc1C#N` [Compound 18, (R)-3-(5-cyano-4-((1-methoxyprop-2-yl)oxo)pyrid-2-yl)-1-(6-formyl-5-((4-methyl-2-carbonylpiperazin-1-yl)methyl)pyrid-2-yl)-1-methylurea], in the data set with Hep3B cells, the negative logarithm of the IC50 (pIC50) (commonly the IC50 on a negative log10 scale, so that one unit is a factor of ten) was > 7.30. For the same molecule, the TGI value in data set [1] (10 mg/kg BID for 18 days) is 96.4%; in data set [1] (30 mg/kg BID for 18 days) it was 108.3%; in data set [1] (60 mg/kg QD for 18 days) it was 104.4%; in data set [1] (100 mg/kg BID for 18 days) it was 109.2%. Further, the mean tumor size worked out at 230 mm^3 in data set [1] (10 mg/kg BID for 18 days), 16 mm^3 in data set [1] (30 mg/kg BID for 18 days), 86 mm^3 in data set [1] (60 mg/kg QD for 18 days) and 0 mm^3 in data set [1] (100 mg/kg BID for 18 days). Also, the “tolerability by tumor-bearing animals” value in data set [1] (all dose levels) is “well-tolerated”. For the same molecule, the “body weight loss during the treatment” value in data set [1] (all groups) is “didn't exhibit significant body weight loss”.

In the case of `COCCNc1cc(NC(=O)N(C)c2ccc(CN3CCOCC3=O)c(C=O)n2)ncc1C#N` [Compound 9, 3-(5-cyano-4-((2-methoxyethyl)amino)pyrid-2-yl)-1-(6-formyl-5-((3-carbonylmorpholino)methyl)pyrid-2-yl)-1-methylurea], the negative-log IC50 (pIC50) with Hep3B cells is > 7.30.

In the case of `CC(C)Nc1cc(NC(=O)N(C)c2ccc(CN3CCOCC3=O)c(C=O)n2)ncc1C#N` [Compound 10, 3-(5-cyano-4-(isopropylamino)pyrid-2-yl)-1-(6-formyl-5-((3-carbonylmorpholino)methyl)pyrid-2-yl)-1-methylurea], the negative logarithm of the IC50 (pIC50) with Hep3B cells is 7.00 to 7.30.

Take `CC(C)Nc1cc(NC(=O)N(C)c2ccc(CN3CCN(C)CC3=O)c(C=O)n2)ncc1C#N` [Compound 16, 3-(5-cyano-4-(isopropylamino)pyrid-2-yl)-1-(6-formyl-5-((4-methyl-2-carbonylpiperazin-1-yl)methyl)pyrid-2-yl)-1-methylurea]: the pIC50 in the data set with Hep3B cells was > 7.30.

In the case of `CC(C)Oc1cc(NC(=O)N(C)c2ccc(CN3CCN(C)CC3=O)c(C=O)n2)ncc1C#N` [Compound 19, 3-(5-cyano-4-isopropoxypyrid-2-yl)-1-(6-formyl-5-((4-methyl-2-carbonylpiperazin-1-yl)methyl)pyrid-2-yl)-1-methylurea], the negative-log IC50 (pIC50) in the data set with Hep3B cells was 7.00 to 7.30.

For the molecule `COCCNc1cc(NC(=O)N(C)c2ccc(C3CCNCC3)c(C=O)n2)ncc1C#N` [Compound 23, 3-(5-cyano-4-((2-methoxyethyl)amino)pyrid-2-yl)-1-(6-formyl-5-(piperidin-4-yl)pyrid-2-yl)-1-methylurea], the pIC50 in data set [2] is 7.00 to 8.00; in data set [3] it was < 6.00; in data set [4], < 6.00; in the data set with Hep3B cells, 7.00 to 7.30.

For `COCCOc1cc(NC(=O)N(C)c2ccc(CN3CCOCC3=O)c(C=O)n2)ncc1C#N` [Compound 12], the pIC50 in the data set on Hep3B cells is > 7.30.

For the origin of these results see patent US10590109B2, “Heterocyclic compounds used as FGFR inhibitors” (Nanjing InnoCare Pharma Tech Co., Ltd., priority 2016, dated 2020).
